Assay results: patent US20230165974A1, “COMPOSITIONS AND METHODS FOR DELIVERING PHARMACEUTICALLY ACTIVE AGENTS” (MEDIMMUNE, LLC, priority 2020, published 2023)

Experiments:
H1299 cells = assay: Toxicity of polymer materials in vitro (metabolic/luminescent viability assay); assay type: cell-based; settings: H1299, 16-hour exposure, polymer in OPTI-MEM
Experimental: Material toxicity was assessed using live dead assays.
H1299 cells were seeded in 96-well plates (10000/well). After a 24 h recovery period, cells were treated with 0.1 to 2 μg of PEI (25K, Polyscience, Inc., Philadelphia Pa.), PLL (Alamanda Polymers, Inc., Huntsville Ala., 5 kDa), and P: PLL(M) 33, P: PLL(MN) 33, and P: PLL(TM) 33″ prepared in OPTI-MEM. After a 16-hour exposure, cells were analysed using a live/dead stain or metabolic assay. For the live/dead assay, 10 μL of Calcein AM (2 mM in DMSO) and 5 of propidium iodide (2 mM DMSO) stock solutions were dissolved in 5 mL of PBS. The cells were then washed with PBS twice and staining solution added (100 μL/well). After a 30-minute incubation period at 37° C., the cells were imaged using an IncuCyte plate reader (Sartorius). Alternatively, metabolic assays were performed using Celriter-Glo·Luminescent Assay using the manufacturers standard protocol. Luminescence measurements were collected using a PHERAStar plate reader (BMG LabTech) and IC50 doses were derived by fitting the data in Microsoft excel.

C2C12 = assay: as above; assay type: cell-based

Question: With Poly-L-lysine [P: PLL] as the substance, how does the Toxicity/IC50 (H1299 cells) read?
Answer: 0.21 μg/well

Question: What about the Toxicity/IC50 (C2C12) of the same substance?
Answer: 0.33 μg/well
